Key:
[1] = logP determination by HPLC on a reversed-phase column (C18), EEC Directive 79/831 Annex V.A8; assay type: physicochemical
Description: (§1) ^a) Note regarding the determination of the logP values and mass detection: The determination of the given logP values was carried out in accordance with EEC Directive 79/831 Annex V.A8 by HPLC (High Performance Liquid Chromatography) on a reversed-phase column (C18). Agilent 1100 LC system; 50*4.6 Zorbax Eclipse Plus C18 1.8 micron; mobile phase A: acetonitrile (0.1% formic acid); mobile phase B: water (0.09% formic acid); linear gradient from 10% acetonitrile to 95% acetonitrile in 4.25 min, then 95% acetonitrile for a further 1.25 min; oven temperature 55° C.; flow rate: 2.0 ml/min. Mass detection is carried out via an Agilend MSD system.
as §1, with “^*)” for “^a)”

[2] = system: engorged adult female cattle ticks (Boophilus microplus); experiment: Boophilus microplus injection test (BOOPMI Inj); assay type: in vivo; settings: application rate 20 μg/animal; injection into abdomen; assessed after 7 days
Description: C. Boophilus microplus-injection Test (BOOPMI Inj)
(§2) Solvent: dimethyl sulphoxide
To produce a suitable preparation of active compound, 10 mg of active compound are mixed with 0.5 ml of solvent, and the concentrate is diluted with solvent to the desired concentration.
1 μl of the active compound solution is injected into the abdomen of 5 engorged adult female cattle ticks (Boophilus microplus). The animals are transferred into dishes and kept in a climate-controlled room.
The activity is assessed after 7 days by laying of fertile eggs. Eggs whose fertility is not visible from the outside are stored in a climate-controlled cabinet until the larvae hatch after about 42 days. An efficacy of 100% means that none of the ticks has laid any fertile eggs; 0% means that all eggs are fertile.

[3] = system: adult cat fleas (Ctenocephalides felis); experiment: Ctenocephalides felis oral test (CTECFE); assay type: in vivo; settings: application rate 100 ppm in citrated cattle blood; after 2 days
Description: D. Ctenocephalides felis-oral Test (CTECFE)
as §2
To produce a suitable preparation of active compound, 10 mg of active compound are mixed with 0.5 ml of dimethyl sulphoxide. Dilution with citrated cattle blood gives the desired concentration.
About 20 unfed adult cat fleas (Ctenocephalides felis) are placed into a chamber which is closed at the top and bottom with gauze. A metal cylinder whose bottom end is closed with a parafilm is placed onto the chamber. The cylinder contains the blood/active ingredient preparation, which can be imbibed by the fleas through the parafilm membrane.
After 2 days, the kill in % is determined 100% means that all of the fleas have been killed; 0% means that none of the fleas have been killed.

[4] = system: L1 larvae of the Australian sheep blowfly (Lucilia cuprina); experiment: Lucilia cuprina test (LUCICU); assay type: in vivo; settings: application rate 100 ppm; after 2 days
Description: E. Lucilia cuprina Test (LUCICU)
as §2
To produce a suitable preparation of active compound, 10 mg of active compound are mixed with 0.5 ml of dimethyl sulphoxide, and the concentrate is diluted with water to the desired concentration.
About 20 L1 larvae of the Australian sheep blowfly (Lucilia cuprina) are transferred into a test vessel containing minced horsemeat and the active compound preparation of the desired concentration.
After 2 days, the kill in % is determined 100% means that all of the larvae have been killed; 0% means that none of the larvae have been killed.

[5] = system: larvae of the mustard beetle (Phaedon cochleariae); experiment: Phaedon cochleariae spray test (PHAECO); assay type: in vivo; settings: Chinese cabbage leaf discs, after 7 days
Description: H. Phaedon cochleariae-spray Test (PHAECO)
Solvents: 78.0 parts by weight of acetone
(§3) • 1.5 parts by weight of dimethylformamide Emulsifier: alkylaryl polyglycol ether
(§4) To produce a suitable preparation of active compound, 1 part by weight of active compound is dissolved using the stated parts by weight of solvent and made up with water comprising an emulsifier concentration of 1000 ppm until the desired concentration is reached. To produce further test concentrations, the preparation is diluted with emulsifier-containing water.
After 7 days, the efficacy in % is determined. 100% means that all of the beetle larvae have been killed; 0% means that none of the beetle larvae have been killed.

[6] = system: caterpillars of the armyworm (Spodoptera frugiperda); experiment: Spodoptera frugiperda spray test (SPODFR); assay type: in vivo; settings: maize leaf discs, after 7 days
Description: I. Spodoptera frugiperda-spray Test (SPODFR)
(§5) Solvent: 78.0 parts by weight of acetone
as §3, §4
Leaf discs of maize (Zea mays) are sprayed with an active compound preparation of the desired concentration and, after drying, populated with caterpillars of the armyworm (Spodoptera frugiperda).
After 7 days, the efficacy in % is determined. 100% means that all of the caterpillars have been killed; 0% means that none of the caterpillars have been killed.

[7] = system: greenhouse red spider mite (Tetranychus urticae); experiment: Tetranychus urticae spray test, OP-resistant (TETRUR); assay type: in vivo; settings: application rate 500 g/ha; bean leaf discs; after 6 days
Description: J. Tetranychus urticae-spray Test, OP-Resistant (TETRUR)
as §5, §3, §4
Discs of bean leaves (Phaseolus vulgaris) which are infested by all stages of the greenhouse red spider mite (Tetranychus urticae) are sprayed with an active compound preparation of the desired concentration.
After 6 days, the efficacy in % is determined. 100% means that all of the spider mites have been killed; 0% means that none of the spider mites have been killed.

[8] = system: adult cat fleas (Ctenocephalides felis); experiment: Ctenocephalides felis in vitro contact test with adult cat fleas (T1); settings: after 48 h
Description: T1. Ctenocephalides felis—in vitro Contact Tests with Adult Cat Fleas
(§6) For the coating of the test tubes, initially 9 mg of active compound are dissolved in 1 ml of acetone p.a. and then diluted with acetone p.a. to the desired concentration. By turning and rocking on an orbital shaker (2 h of rocking rotation at 30 rpm), 250 μl of the solution are distributed homogeneously on the internal walls and the floor of a 25 ml test tube. At 900 ppm active compound solution and 44.7 cm^2 internal surface, an area dose of 5 μg/cm^2 is achieved for homogeneous distribution.
After evaporation of the solvent, the tubes are populated with 5-10 adult cat fleas (Ctenocephalides felis), sealed with a perforated plastic lid and incubated in a horizontal position at room temperature and ambient humidity. After 48 h, the efficacy is determined. To this end, the test tubes are stood upright and the fleas are knocked to the floor of the tube. Fleas which remain motionless on the floor or move in an uncoordinated manner are considered to be dead or moribund.
An efficacy of 100% means that all fleas were dead or moribund. 0% efficacy means that none of the fleas had been damaged.

[9] = system: adult dog ticks (Rhipicephalus sanguineus); experiment: Rhipicephalus sanguineus in vitro contact test with adult brown dog ticks (T2); settings: after 48 h
Description: T2. Rhipicephalus sanguineus-in vitro Contact Tests with Adult Brown Dog Ticks
as §6
After evaporation of the solvent, the tubes are populated with 5-10 adult dog ticks (Rhipicephalus sanguineus), sealed with a perforated plastic lid and incubated in a horizontal position in the dark at room temperature and ambient humidity. After 48 h, the efficacy is determined. To this end, the ticks are knocked to the floor of the tube and incubated on a hotplate at 45-50° C. for at most 5 min Ticks which remain motionless on the floor or move in an uncoordinated manner such that they are not able to deliberately avoid the heat by climbing upwards are considered to be dead or moribund.
An efficacy of 100% means that all ticks were dead or moribund. 0% efficacy means that none of the ticks had been damaged.

[10] = HPLC, reversed-phase C18, acetonitrile (0.1% formic acid)/water (0.09% formic acid) gradient
[11] = HPLC on reversed-phase column (C18), acetonitrile/water with formic acid, EEC Directive 79/831 Annex V.A8

Structure (SMILES)	efficacy (laying of fertile eggs) [2] [%]	efficacy (kill in %) [3] [%]	efficacy (kill in %) [4] [%]	efficacy in % ([5]; application rate 100 g/ha) [%]	efficacy in % ([5]; application rate 500 g/ha) [%]	logP [1, 11]	other results
Cn1nc(C(F)(F)C(F)(F)F)c(C(F)(F)F)c1-n1ccc(-c2ccc(Cl)c(C(=O)NC3CC3)c2)n1 [Id-2]	100	100	95	100	–	–	logP [1, 10]: 3.97; efficacy in % ([6]; application rate 100 g/ha): 100%
Cn1nc(C(F)(F)C(F)(F)F)c(C(F)(F)F)c1-n1cc(-c2cc(Cl)nc(C(=O)NC3(C#N)CC3)c2)cn1 [Ic-89]	100	90	100	–	100	–	efficacy in % ([6]; application rate 500 g/ha): 83%
Cn1nc(C(F)(F)C(F)(F)F)c(C(F)(F)F)c1-n1cc(-c2cc(OC(F)(F)F)cc(C(=O)NC3CC3)c2)cn1 [Ic-74]	100	100	100	–	100	–	efficacy in % ([6]; application rate 500 g/ha): 100%
Cn1nc(C(F)(F)F)c(C#N)c1-n1cc(-c2ccc(Cl)c(C(=O)NC3(C#N)CC3)c2)cn1 [Ic-53]	100	100	100	100	–	2.92	–
O=C(NC1CC1)c1cc(-c2cnn(-c3c(C(F)(F)F)c(C(F)(F)C(F)(F)F)nn3-c3ncccc3Cl)c2)ccc1Cl [Ic-14]	100	–	100	100	–	4.28	efficacy in % ([6]; application rate 100 g/ha): 100%
Cn1nc(C(F)(F)C(F)(F)F)c(C(F)(F)F)c1-n1cc(-c2cccc(C(N)=O)c2)cn1 [Ic-35]	80	100	100	100	–	3.1	–
Cn1nc(C(F)(F)C(F)(F)F)c(C(F)(F)F)c1-n1cc(-c2cc(Cl)nc(C(=O)NC3CC3)c2)cn1 [Ic-88]	100	–	100	–	100	–	–
Cn1nc(C(F)(F)C(F)(F)F)c(C(F)(F)F)c1-n1cc(-c2ccc(Cl)c(C(=O)NCC(=O)NCC(F)(F)F)c2)cn1 [Ic-31]	–	100	90	100	–	3.65	–
Cn1nc(C(F)(F)C(F)(F)F)c(C(F)(F)F)c1-n1cc(-c2cc(OC(F)(F)F)cc(C(=O)NC3(C#N)CC3)c2)cn1 [Ic-75]	100	100	100	–	100	–	efficacy in % ([6]; application rate 500 g/ha): 100%
CC(C)CNC(=O)c1cc(-c2cnn(-c3c(C(F)(F)F)c(C(F)(F)C(F)(F)F)nn3C)c2)ccc1Cl [Ic-142]	–	–	–	–	100	–	efficacy in % ([6]; application rate 500 g/ha): 100%; efficacy in % [7]: 100%; efficacy (dead or moribund fleas) ([8]; application rate 1 μg/cm^2): 100%; efficacy (dead or moribund fleas) ([8]; application rate 5 μg/cm^2): 100%; efficacy (dead or moribund ticks) ([9]; application rate 1 μg/cm^2): 80%; efficacy (dead or moribund ticks) ([9]; application rate 5 μg/cm^2): 100%
N#CC1(NC(=O)c2cc(-c3cnn(-c4c(C(F)(F)F)c(C(F)(F)C(F)(F)F)nn4-c4ncccc4Cl)c3)ccc2Cl)CC1 [Ic-15]	80	–	–	100	–	4.15	–
O=C(NC1CC1)c1cc(-c2cnn(-c3c(C(F)(F)F)c(C(F)(F)C(F)(F)F)nn3-c3ccc([N+](=O)[O-])cc3)c2)ccc1Cl [Ic-8]	100	100	100	–	–	4.54	–
Cn1nc(C(F)(F)C(F)(F)F)c(C(F)(F)F)c1-n1cc(-c2cc(C(=O)NC3CC3)ncc2F)cn1 [Ic-72]	100	–	80	–	100	–	–
Cn1nc(C(F)(F)C(F)(F)F)c(C(F)(F)F)c1-n1cc(-c2ccc(Cl)c(C(=O)NC3CCC3)c2)cn1 [Ic-143]	–	–	–	–	–	–	efficacy (dead or moribund fleas) ([8]; application rate 1 μg/cm^2): 100%; efficacy (dead or moribund fleas) ([8]; application rate 5 μg/cm^2): 100%; efficacy (dead or moribund ticks) ([9]; application rate 1 μg/cm^2): 100%; efficacy (dead or moribund ticks) ([9]; application rate 5 μg/cm^2): 100%
Cn1nc(C(F)(F)C(F)(F)F)c(C(F)(F)F)c1-n1cc(-c2cc(C(=O)NC3(C#N)CC3)ccc2F)cn1 [Ic-42]	100	100	100	–	100	–	efficacy in % ([6]; application rate 500 g/ha): 83%
Cn1nc(C(F)(F)C(F)(F)F)c(C(F)(F)F)c1-n1cc(-c2cc(C(=O)NC3CC3)c(Cl)cc2F)cn1 [Ic-92]	100	80	95	–	100	–	–
Cn1nc(C(F)(F)C(F)(F)F)c(C(F)(F)F)c1-n1cc(-c2ccc(Cl)c(C(=O)NC3CC3)c2)c(C(F)(F)F)n1 [Ic-4]	100	100	100	–	–	4.51	–
Cn1nc(C(F)(F)C(F)(F)F)c(C(F)(F)F)c1-n1cnc(-c2ccc(Cl)c(C(=O)NC3(C#N)CC3)c2)n1 [Ie-1]	100	100	–	100	–	–	logP [1, 10]: 3.62
